Measurements reported in BindingDB's records for PubMed 32222663 (n/a, 2020).

Target: T1, Heparanase (Homo sapiens, UniProt Q9Y251)
T1 sequence (Q9Y251 whole entry): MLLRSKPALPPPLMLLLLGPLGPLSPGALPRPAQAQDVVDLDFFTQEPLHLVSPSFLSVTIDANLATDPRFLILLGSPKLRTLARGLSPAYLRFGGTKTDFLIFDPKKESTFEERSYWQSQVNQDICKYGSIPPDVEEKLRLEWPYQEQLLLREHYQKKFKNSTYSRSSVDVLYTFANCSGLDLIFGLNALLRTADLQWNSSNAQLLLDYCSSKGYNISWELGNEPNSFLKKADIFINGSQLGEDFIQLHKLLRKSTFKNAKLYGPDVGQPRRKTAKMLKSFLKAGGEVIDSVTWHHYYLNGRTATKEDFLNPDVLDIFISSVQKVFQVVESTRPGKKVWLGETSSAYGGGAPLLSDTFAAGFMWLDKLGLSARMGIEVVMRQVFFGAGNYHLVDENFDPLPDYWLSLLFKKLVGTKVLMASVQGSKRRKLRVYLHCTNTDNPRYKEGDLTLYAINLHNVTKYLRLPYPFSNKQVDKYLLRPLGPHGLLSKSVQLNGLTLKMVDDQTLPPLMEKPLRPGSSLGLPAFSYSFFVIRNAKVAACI
Test: Inhibition of recombinant human heparanase incubated for 4 hrs by beta-scintillation counter analysis

IC50: 5 nM
Structure (SMILES): O=S(=O)(O)OC[C@H]1O[C@H](O[C@H]2[C@H](OS(=O)(=O)O)[C@H](OS(=O)(=O)O)C(C3O[C@H](COS(=O)(=O)O)[C@@H](O[C@H]4O[C@H](COS(=O)(=O)O)[C@@H](O[C@H]5O[C@H](COS(=O)(=O)O)[C@@H](OS(=O)(=O)O)[C@H](OS(=O)(=O)O)[C@@H]5OS(=O)(=O)O)[C@H](OS(=O)(=O)O)[C@@H]4OS(=O)(=O)O)[C@H](OS(=O)(=O)O)[C@@H]3OS(=O)(=O)O)O[C@@H]2COS(=O)(=O)O)[C@@H](OS(=O)(=O)O)[C@@H](OS(=O)(=O)O)[C@@H]1O[C@H]1O[C@H](COS(=O)(=O)O)[C@@H](OS(=O)(=O)O)[C@H](OS(=O)(=O)O)[C@@H]1OS(=O)(=O)O (stereo partly specified)
